Measured values taken from article PMC12203311, “Design, synthesis, in silico and in vitro evaluation of pyrrole–indole hybrids as dual tubulin and aromatase inhibitors with potent anticancer activities” (RSC Advances, 2025).

Key:
CCRF-CEM = assay: NCI60 five-dose screen; type: cell-based; details: Homo sapiens, leukemia; for CC50: read-out: LC50 (the source's name)
HL-60 (TB) = assay: NCI60 five-dose screen; type: cell-based; details: Homo sapiens, leukemia; for CC50: read-out: LC50 (the source's name)
K-562 = assay: NCI60 five-dose screen; type: cell-based; details: Homo sapiens, K562, K-562, leukemia; for CC50: read-out: LC50 (the source's name)
RPMI-8226 = assay: NCI60 five-dose screen; type: cell-based; details: Homo sapiens, RPMI-8226, leukemia; for CC50: read-out: LC50 (the source's name)
NCI-H23 = assay: NCI60 five-dose screen; type: cell-based; details: Homo sapiens, NCI-H23, NSC lung cancer; for CC50: read-out: LC50 (the source's name)
HCC-2998 = assay: NCI60 five-dose screen; type: cell-based; details: Homo sapiens, HCC-2998, colon cancer; for CC50: read-out: LC50 (the source's name)
HCT-116 = assay: NCI60 five-dose screen; type: cell-based; details: Homo sapiens, HCT-116, colon cancer; for CC50: read-out: LC50 (the source's name)
KM12 = assay: NCI60 five-dose screen; type: cell-based; details: Homo sapiens, KM12, colon cancer; for CC50: read-out: LC50 (the source's name)
SW-620 = assay: NCI60 five-dose screen; type: cell-based; details: Homo sapiens, SW-620, colon cancer; for CC50: read-out: LC50 (the source's name)
SF-539 = assay: NCI60 five-dose screen; type: cell-based; details: Homo sapiens, SF-539, CNS cancer; for CC50: read-out: LC50 (the source's name)
SNB-75 = assay: NCI60 five-dose screen; type: cell-based; details: Homo sapiens, SNB-75, CNS cancer; for CC50: read-out: LC50 (the source's name)
U251 = assay: NCI60 five-dose screen; type: cell-based; details: Homo sapiens, U-251, U251, CNS cancer; for CC50: read-out: LC50 (the source's name)
MALME-3M = assay: NCI60 five-dose screen; type: cell-based; details: Homo sapiens, melanoma; for CC50: read-out: LC50 (the source's name)
MDA-MB-435 = assay: NCI60 five-dose screen; type: cell-based, human; details: Homo sapiens; for GI50: MDA-MB-435, melanoma
SK-MEL-2 = assay: NCI60 five-dose screen; type: cell-based; details: Homo sapiens, SK-MEL-2, melanoma; for CC50: read-out: LC50 (the source's name)
SK-MEL-28 = assay: NCI60 five-dose screen; type: cell-based; details: Homo sapiens, SK-MEL-28, melanoma; for CC50: read-out: LC50 (the source's name)
SK-MEL-5 = assay: NCI60 five-dose screen; type: cell-based, human; details: Homo sapiens; for CC50: SK-MEL-5, SK-MEL-5, melanoma, read-out: LC50 (the source's name); for GI50: SK-MEL-5, melanoma
UACC-62 = assay: NCI60 five-dose screen; type: cell-based; details: Homo sapiens, UACC-62, melanoma; for CC50: read-out: LC50 (the source's name)
IGROV1 = assay: NCI60 five-dose screen; type: cell-based; details: Homo sapiens, IGROV-1; IGROV1, ovarian cancer
OVCAR-3 = assay: NCI60 five-dose screen; type: cell-based; details: Homo sapiens, OVCAR-3, ovarian cancer; for CC50: read-out: LC50 (the source's name)
OVCAR-5 = assay: NCI60 five-dose screen; type: cell-based; details: Homo sapiens, OVCAR-5, ovarian cancer; for CC50: read-out: LC50 (the source's name)
SK-OV-3 = assay: NCI60 five-dose screen; type: cell-based; details: Homo sapiens, SK-OV-3, ovarian cancer; for CC50: read-out: LC50 (the source's name)
A498 = assay: NCI60 five-dose screen; type: cell-based; details: Homo sapiens, A498, renal cancer; for CC50: read-out: LC50 (the source's name)
RXF 393 = assay: NCI60 five-dose screen; type: cell-based; details: Homo sapiens, RXF 393, renal cancer; for CC50: read-out: LC50 (the source's name)
TK-10 = assay: NCI60 five-dose screen; type: cell-based; details: Homo sapiens, TK-10, renal cancer; for CC50: read-out: LC50 (the source's name)
MCF7 = assay: NCI60 five-dose screen; type: cell-based; details: Homo sapiens, MCF7, breast cancer; for CC50: read-out: LC50 (the source's name)
MDA-MB-231/ATCC = assay: NCI60 five-dose screen; type: cell-based; details: Homo sapiens, breast cancer; for CC50: read-out: LC50 (the source's name)
HS 578T = assay: NCI60 five-dose screen; type: cell-based; details: Homo sapiens, breast cancer; for CC50: read-out: LC50 (the source's name)
T-47D = assay: NCI60 five-dose screen; type: cell-based; details: Homo sapiens, T47D, breast cancer; for CC50: read-out: LC50 (the source's name)
[1] = system: T47D breast cancer cell line; assay: Cytotoxicity MTT assay, T47D; type: cell-based, human; details: Homo sapiens, T47D; MTT, 48 hours
Method: T47D (ATCC HTB-133) was purchased from Biomedia (Thailand) Co., LTD. L929 (ATCC CCL-1) was received as a gift from Prof. Tanapat Palaga, Department of Microbiology, Faculty of Science, Chulalongkorn University, Bangkok, Thailand. The cells were cultured in Dulbecco's Modified Eagle's Medium (DMEM; Gibco) supplemented with 10% fetal bovine serum (FBS; HyClone), 100 U mL^−1 penicillin and 100 µg mL^−1 streptomycin (Gibco) at 37 °C with 5% CO2.
The antiproliferative activity was determined by MTT assay. Briefly, the cells were plated into a 96-well microplate at the density of 10 000 cells per well. The cells were allowed to grow overnight before treated with the solutions of compounds in culture medium at the designated concentrations for 48 hours. The medium was then replaced with MTT solution (0.5 mg mL^−1 MTT in culture medium) and incubated for 3 hours. A 100 µL of DMSO was used to dissolve the produced formazan. Absorbance at 570 nm was then measured using a microplate reader (Varioskan™ LUX multimode microplate reader, Thermo Scientific™). Percent viability was calculated relative to the vehicle control (DMSO).

## O=C(N/N=C/c1cc(Cl)c[nH]1)c1[nH]c2ccc(Br)cc2c1-c1ccccc1 [Derivative 3h, (E)-5-Bromo-N′-((4-chloro-1H-pyrrol-2-yl)methylene)-3-phenyl-1H-indole-2-carbohydrazide]
CCRF-CEM
  GI50: 0.132 µM
  CC50: > 100 µM
HL-60 (TB)
  GI50: 0.185 µM
  CC50: 0.886 µM
K-562
  GI50: 0.234 µM
  CC50: 5.64 µM
RPMI-8226
  GI50: 0.446 µM
  CC50: > 100 µM
NCI-H23
  GI50: 0.317 µM
  CC50: 36.5 µM
HCC-2998
  GI50: 0.224 µM
  CC50: 4.2 µM
HCT-116
  GI50: 0.331 µM
  CC50: 29.1 µM
KM12
  GI50: 0.328 µM
  CC50: 20.7 µM
SW-620
  GI50: 0.328 µM
  CC50: 80.9 µM
SF-539
  GI50: 0.231 µM
  CC50: 22.1 µM
SNB-75
  GI50: 0.247 µM
  CC50: 75.5 µM
U251
  GI50: 0.349 µM
  CC50: 24.9 µM
MALME-3M
  GI50: 0.645 µM
  CC50: 46.1 µM
MDA-MB-435
  GI50: 0.185 µM
SK-MEL-2
  GI50: 0.26 µM
  CC50: 47.9 µM
SK-MEL-28
  GI50: 0.582 µM
  CC50: 47.9 µM
SK-MEL-5
  CC50: 3.08 µM
  GI50: 0.228 µM
UACC-62
  GI50: 0.559 µM
  CC50: 66.3 µM
IGROV1
  GI50: 0.538 µM
OVCAR-3
  GI50: 0.27 µM
  CC50: 19.7 µM
OVCAR-5
  GI50: 0.473 µM
  CC50: 36 µM
SK-OV-3
  GI50: 0.519 µM
  CC50: 45.4 µM
A498
  GI50: 1.45 µM
  CC50: 42.1 µM
RXF 393
  GI50: 0.219 µM
  CC50: 34.3 µM
TK-10
  GI50: 3.91 µM
  CC50: 83.2 µM
MCF7
  GI50: 0.309 µM
  CC50: 53.5 µM
MDA-MB-231/ATCC
  GI50: 0.296 µM
  CC50: 26.9 µM
HS 578T
  GI50: 0.284 µM
  CC50: > 100 µM
T-47D
  GI50: 0.546 µM
  CC50: 92.6 µM
[1]
  IC50: 2.4 ± 1.8 µM

## CCOC(=O)c1c[nH]c(/C=N/NC(=O)c2[nH]c3ccc(Br)cc3c2-c2ccccc2)c1 [Derivative 3j, Ethyl (E)-5-((2-(5-bromo-3-phenyl-1H-indole-2-carbonyl)hydrazono)methyl)-1H-pyrrole-3-carboxylate]
CCRF-CEM
  GI50: 2.41 µM
  CC50: > 100 µM
HL-60 (TB)
  GI50: 1.5 µM
  CC50: 9.88 µM
K-562
  GI50: 1.9 µM
  CC50: 57.1 µM
RPMI-8226
  GI50: 2.52 µM
  CC50: > 100 µM
NCI-H23
  GI50: 3.06 µM
  CC50: 46.4 µM
HCC-2998
  GI50: 2.18 µM
  CC50: 15.9 µM
HCT-116
  GI50: 2.95 µM
  CC50: 45.6 µM
KM12
  GI50: 2.21 µM
  CC50: 33.9 µM
SW-620
  GI50: 3.36 µM
  CC50: 76.2 µM
SF-539
  GI50: 2.26 µM
  CC50: 19.4 µM
SNB-75
  GI50: 1.09 µM
  CC50: 35.8 µM
U251
  GI50: 2.66 µM
  CC50: 40.6 µM
MALME-3M
  GI50: 6.06 µM
  CC50: 54.9 µM
MDA-MB-435; MDA-MB-435, MDA-MB-435, melanoma, read-out: LC50 (the source's name)
  CC50: 16.1 µM
MDA-MB-435
  GI50: 1.09 µM
SK-MEL-2
  GI50: 2.8 µM
  CC50: 32.8 µM
SK-MEL-28
  GI50: 4.56 µM
  CC50: 45.8 µM
SK-MEL-5
  CC50: 10.1 µM
  GI50: 1.44 µM
UACC-62
  GI50: 2.92 µM
  CC50: 42.6 µM
IGROV1
  GI50: 3.91 µM
OVCAR-3
  GI50: 2.13 µM
  CC50: 23.1 µM
OVCAR-5
  GI50: 3.87 µM
  CC50: 42.9 µM
SK-OV-3
  GI50: 4.53 µM
  CC50: 45.3 µM
A498
  GI50: 3.53 µM
  CC50: 43.4 µM
RXF 393
  GI50: 1.36 µM
  CC50: 22 µM
TK-10
  GI50: 7.35 µM
  CC50: 46.2 µM
MCF7
  GI50: 2.76 µM
  CC50: 50.2 µM
MDA-MB-231/ATCC
  GI50: 2.85 µM
  CC50: 36.8 µM
HS 578T
  GI50: 2.36 µM
  CC50: > 100 µM
T-47D
  GI50: 2.91 µM
  CC50: 86.9 µM
[1]
  IC50: 10.4 ± 2.9 µM
